From US5780605A, “6,9-bridged erythromycin derivatives” (Abbott Laboratories, priority 1997, dated 1998)

What was measured:
Assay in all cases: in vitro antibacterial activity (MIC), BHI agar dilution
Type in all cases: cell-based
[1] = test system: Staphylococcus epidermidis 3519; conditions: S. epidermidis 3519, 35-37° C., 20 to 24 hours
Description: (§1) Representative compounds of the present invention were assayed in vitro for antibacterial activity as follows: Twelve petri dishes containing successive aqueous dilutions of the test compound mixed with 10 mL of sterilized Brain Heart Infusion (BHI) agar (Difco 0418-01-5) were prepared. Each plate was inoculated with 1:100 (or 1:10 for slow-growing strains, such as Micrococcus and Streptococcus) dilutions of up to 32 different microorganisms, using a Steers replicator block. […] In addition, a control plate, using BHI agar containing no test compound, was prepared and incubated at the beginning and end of each test.
(§2) An additional plate containing a compound having known susceptibility patterns for the organisms being tested and belonging to the same antibiotic class as the test compound was also prepared and incubated as a further control, as well as to provide test-to-test comparability.
(§3) After incubation, each plate was visually inspected. The minimum inhibitory concentration (MIC) was defined as the lowest concentration of drug yielding no growth, a slight haze, or sparsely isolated colonies on the inoculum spot as compared to the growth control.

[2] = test system: Staphylococcus aureus A-5278; conditions: S. aureus A-5278, 35-37° C., 20 to 24 hours
Description: as §1, §2, §3

[3] = test system: Streptococcus pyogenes EES61; conditions: S. pyogenes EES61, 35-37° C., 20 to 24 hours
Description: as §1, §2, §3

[4] = test system: Staphylococcus aureus CMX 642A; conditions: S. aureus CMX 642A, 35-37° C., 20 to 24 hours
Description: as §1, §2, §3

[5] = test system: Micrococcus luteus ATCC 9341; conditions: M. luteus ATCC 9341, 35-37° C., 20 to 24 hours
Description: as §1, §2, §3

[6] = test system: Mycobacterium smegmafis ATCC 114; conditions: 35-37° C., 20 to 24 hours
Description: as §1, §2, §3

[7] = test system: Staphylococcus aureus ATCC 6538P; conditions: S. aureus ATCC 6538P, 35-37° C., 20 to 24 hours
Description: as §1, §2, §3

[8] = test system: Staphylococcus aureus 1775; conditions: S. aureus 1775, 35-37° C., 20 to 24 hours
Description: as §1, §2, §3

Escherichia coli SS = conditions: E. coli SS, 35-37° C., 20 to 24 hours
Description: as §1, §2, §3

[9] = test system: Streptococcus agalactiae CMX 508; conditions: S. agalactiae CMX 508, 35-37° C., 20 to 24 hours
Description: as §1, §2, §3

[10] = test system: Streptococcus pyogenes 930; conditions: S. pyogenes 930, 35-37° C., 20 to 24 hours
Description: as §1, §2, §3

[11] = test system: Streptococcus Pheumoniae ATCC6303; conditions: 35-37° C., 20 to 24 hours
Description: as §1, §2, §3

[12] = test system: Staphylococcus aureus A5177; conditions: S. aureus A5177, 35-37° C., 20 to 24 hours
Description: as §1, §2, §3

[13] = test system: Streptococcus Pheumoniae 5979; conditions: 35-37° C., 20 to 24 hours
Description: as §1, §2, §3

[14] = test system: Streptococcus bovis A-5169; conditions: S. bovis A-5169, 35-37° C., 20 to 24 hours
Description: as §1, §2, §3

[15] = test system: Haemophilis Influenzae DILL AMP R; conditions: 35-37° C., 20 to 24 hours
Description: as §1, §2, §3

[16] = test system: Enterococcus faecium ATCC 8043; conditions: E. faecium ATCC 8043, 35-37° C., 20 to 24 hours
Description: as §1, §2, §3

[17] = test system: Streptococcus pyogenes PIU 2548; conditions: S. pyogenes PIU 2548, 35-37° C., 20 to 24 hours
Description: as §1, §2, §3

Escherichia coli JUHL = conditions: E. coli JUHL, 35-37° C., 20 to 24 hours
Description: as §1, §2, §3

[18] = test system: Nocardia Asteroides ATCC9970; conditions: 35-37° C., 20 to 24 hours
Description: as §1, §2, §3

[19] = test system: Micrococcus luteus ATCC 4698; conditions: M. luteus ATCC 4698, 35-37° C., 20 to 24 hours
Description: as §1, §2, §3

Escherichia coli DC-2 = conditions: E. coli DC-2, 35-37° C., 20 to 24 hours
Description: as §1, §2, §3

[20] = test system: Streptococcus Pheumoniae GYR 1171; conditions: 35-37° C., 20 to 24 hours
Description: as §1, §2, §3

Candida albicans CCH 442 = conditions: C. albicans CCH 442, 35-37° C., 20 to 24 hours
Description: as §1, §2, §3

[21] = test system: Staphylococcus aureus CMX 553; conditions: S. aureus CMX 553, 35-37° C., 20 to 24 hours
Description: as §1, §2, §3

[22] = test system: Staphylococcus aureus NCTC10649M; conditions: S. aureus NCTC10649M, 35-37° C., 20 to 24 hours
Description: as §1, §2, §3

[23] = test system: Streptococcus Pheumoniae 5649; conditions: 35-37° C., 20 to 24 hours
Description: as §1, §2, §3

SMILES	MIC (minimum inhibitory concentration) [1]	MIC (minimum inhibitory concentration) [2]	MIC (minimum inhibitory concentration) [3]	MIC (minimum inhibitory concentration) [4]	MIC (minimum inhibitory concentration) [5]	MIC (minimum inhibitory concentration) [6]	MIC (minimum inhibitory concentration) [7]	MIC (minimum inhibitory concentration) [8]	MIC (minimum inhibitory concentration) [9]	MIC (minimum inhibitory concentration) [10]	MIC (minimum inhibitory concentration) [11]	MIC (minimum inhibitory concentration) [12]	MIC (minimum inhibitory concentration) [14]	MIC (minimum inhibitory concentration) [15]	MIC (minimum inhibitory concentration) [16]	MIC (minimum inhibitory concentration) [17]	MIC (minimum inhibitory concentration) (Escherichia coli JUHL)	MIC (minimum inhibitory concentration) [19]	MIC (minimum inhibitory concentration) (Escherichia coli DC-2)	MIC (minimum inhibitory concentration) [20]	also measured
CC[C@H]1OC(=O)[C@H](C)[C@@H](O[C@H]2C[C@@](C)(OC)[C@@H](O)[C@H](C)O2)[C@H](C)[C@@H](O[C@@H]2O[C@H](C)C[C@H](N(C)C)[C@H]2O)[C@@]2(C)C[C@@H](C)C(=NOCO2)[C@H](C)[C@@H](O)[C@]1(C)O [Example 1]	6.2	> 100	0.39	12.5	0.2	1.56	6.2	> 100	0.39	> 100	1	> 100	0.39	32	1.56	6.2	> 100	1.56	> 100	0.5	MIC (minimum inhibitory concentration) (Escherichia coli SS): 1.56; MIC (minimum inhibitory concentration) [13]: > 64; MIC (minimum inhibitory concentration) [18]: 0.39; MIC (minimum inhibitory concentration) (Candida albicans CCH 442): > 100; MIC (minimum inhibitory concentration) [21]: 6.2; MIC (minimum inhibitory concentration) [22]: 6.2; MIC (minimum inhibitory concentration) [23]: 4
CC[C@H]1OC(=O)[C@H](C)C(=O)[C@H](C)[C@@H](O[C@@H]2O[C@H](C)C[C@H](N(C)C)[C@H]2O)[C@@]2(C)C[C@@H](C)C(=NOCO2)[C@H](C)[C@H]2OC(=O)O[C@@]21C [Example 3]	3.1	> 100	0.39	3.1	0.39	25	3.1	> 100	0.78	> 100	1	3.1	0.2	16	0.78	0.78	> 100	0.78	> 100	0.25	MIC (minimum inhibitory concentration) (Escherichia coli SS): 0.78; MIC (minimum inhibitory concentration) [13]: > 128; MIC (minimum inhibitory concentration) [18]: 0.78; MIC (minimum inhibitory concentration) (Candida albicans CCH 442): > 100; MIC (minimum inhibitory concentration) [21]: 3.1; MIC (minimum inhibitory concentration) [22]: 3.1; MIC (minimum inhibitory concentration) [23]: 0.5
CC[C@H]1OC(=O)[C@H](C)[C@@H](O[C@H]2C[C@@](C)(OC)[C@@H](O)[C@H](C)O2)[C@H](C)[C@@H](O[C@@H]2O[C@H](C)C[C@H](N(C)C)[C@H]2O)[C@](C)(O)C[C@@H](C)C(=O)[C@H](C)[C@@H](O)[C@]1(C)O [Ery. A, Erythromycin A, reference compound]	0.39	> 100	0.05	0.39	0.05	3.1	0.2	> 100	0.05	> 100	0.06	3.1	0.02	4	0.05	6.2	> 100	0.2	> 100	0.06	MIC (minimum inhibitory concentration) (Candida albicans CCH 442): > 100; MIC (minimum inhibitory concentration) [21]: 0.39; MIC (minimum inhibitory concentration) [22]: 0.39; MIC (minimum inhibitory concentration) [23]: 16
CC[C@H]1OC(=O)[C@H](C)[C@@H](O[C@H]2C[C@@](C)(OC)[C@@H](O)[C@H](C)O2)[C@H](C)[C@@H](O[C@@H]2O[C@H](C)C[C@H](N(C)C)[C@H]2O)[C@@]2(C)C[C@@H](C)C(=NOCO2)[C@H](C)[C@H]2OC(=O)O[C@@]21C [Example 2]	0.39	> 100	<= 0.005	0.39	0.1	3.1	0.39	> 100	0.05	> 100	0.06	3.1	0.02	2	0.1	3.1	50	0.39	25	0.03	MIC (minimum inhibitory concentration) (Escherichia coli SS): 0.78; MIC (minimum inhibitory concentration) [13]: > 128; MIC (minimum inhibitory concentration) [18]: 0.1; MIC (minimum inhibitory concentration) (Candida albicans CCH 442): > 100; MIC (minimum inhibitory concentration) [21]: 0.78; MIC (minimum inhibitory concentration) [23]: 4
